Measurements published in patent US10308686B2, “Gamma-AApeptides with potent and broad-spectrum antimicrobial activity” (priority 2012, dated 2019).
Converted amounts (≈) assume the structure as drawn. Read-outs that look alike come from different tables or passages of the source.

Tests used:
[1] = test system: K. pneumoniae (ATCC 13383)
C. albicans (ATCC 10231) = conditions: ATCC 10231
[2] = test system: multi-drug resistant S. epidermidis (RP62A); conditions: for MIC, S. epidermidis (MRSE): Table 5
[3] = test system: human red blood cells (hRBC's); assay: Hemolysis assay; type: cell-based
Description: Freshly drawn human red blood cells (hRBC's) with additive K2 EDTA (spray-dried) were washed with PBS buffer several times and centrifuged at 1000 g for 10 min until a clear supernatant was observed. The hRBC's were resuspended in 1×PBS to get a 5% v/v suspension. Two-fold serial dilutions of γ-AApeptides dissolved in 1×PBS from 250 μg/ml through 1.6 μg/ml were added to a sterile 96-well plate to make up a total volume of 50 μL in each well. Then 50 μL of 5% v/v hRBC solution was added to make up a total volume of 100 μL in each well. The 0% hemolysis point and 100% hemolysis point were determined in 1×PBS and 0.2% Triton-X-100, respectively (Patch et al., 2003). The plate was then incubated at 37° C. for 1 h and centrifuged at 3500 rpm for 10 min. The supernatant (30 μL) was diluted with 100 μL of 1×PBS and absorption was detected by measuring the optical density at 360 nm by Biotek Synergy HT microtiter plate reader. % hemolysis was determined by the following equation: % hemolysis=(Abssample−AbsPBS)/(AbsTriton−AbsPBS)×100 H50 is the concentration of γ-AApeptide amphiphiles at which 50% hemolysis was observed. The highest concentration tested in the hemolytic assay was 500 μg/ml. 7. Fluorescence Microscopy
The sequences shown in FIG. 12 were also evaluated via hemolytic assays. Freshly drawn human red blood cells (hRBC's) with additive K2 EDTA (spray-dried) were washed with PBS buffer several times and centrifuged at 1000 g for 10 min until a clear supernatant was observed. The hRBC's were resuspended in 1×PBS to get a 5% v/v suspension. Two-fold serial dilutions of lipidated γ-AApeptides dissolved in 1×PBS from 1 mg/ml through 6.3 μg/ml were added to sterile 96-well plates to make up a total volume of 50 μL in each well. Then 50 μL of 5% v/v hRBC solution was added to make up a total volume of 100 μL in each well. The 0% hemolysis point and 100% hemolysis point were determined in 1×PBS and 0.2% Triton-X-100, respectively (Patch et al., 2003). The plate was then incubated at 37° C. for 1 h and centrifuged at 3500 rpm for 10 min. The supernatant (30 μL) was diluted with 100 μL of 1×PBS and absorption was detected by measuring the optical density at 360 nm with a Biotek Synergy HT microtiter plate reader. % hemolysis was determined by the following equation: % hemolysis=(Abs sample−Abs PBS)/(Abs Triton−Abs PBS)×100

[4] = test system: methicillin-resistant S. aureus (ATCC 33592); conditions: for MIC, S. aureus (MRSA): Table 5
[5] = test system: vancomycin-resistant E. faecalis (ATCC 700802); conditions: for MIC, E. faecalis (VREF): Table 5
[6] = test system: multi-drug resistant P. aeruginosa ATCC 27853; conditions: ATCC 27853

| SMILES | MIC, K. pneumoniae [1] | MIC, Fungus C. albicans (C. albicans (ATCC 10231)) | MIC, S. epidermidis (MRSE) [2] | Hemolysis H10 [3] | Hemolysis H50 [3] | MIC, S. aureus (MRSA) [4] | MIC, E. faecalis (VREF) [5] | MIC, K. pneumoniae (causing pneumonia) [1] | MIC, Fungi C. albicans (C. albicans (ATCC 10231)) | MIC, S. epidermidis (multi-drug resistant) ([2]; multi-drug resistant (RP62A)) | Hemolysis (H50) ([3]; Table 3) | MIC, B. subtilis (B. subtilis (BR151)) | MIC, S. aureus (methicillin-resistant) ([4]; ATCC 33592) | MIC, E. faecalis (vancomycin-resistant) ([5]; ATCC 700802) | MIC, E. coli (E. coli (JM109)) | MIC, P. aeruginosa [6] | MIC, S. epidermidis (multi-drug resistant) ([2]; Table 1) | MIC, S. aureus (methicillin-resistant) ([4]; Table 1) | MIC, E. faecalis (vancomycin-resistant) ([5]; Table 1) |
| --- | --- | --- | --- | --- | --- | --- | --- | --- | --- | --- | --- | --- | --- | --- | --- | --- | --- | --- | --- |
| CC(C)CCC(=O)N1CC(=O)N[C@@H](Cc2ccccc2)CN(C(=O)CCC(C)C)CC(=O)N[C@@H](CCCCN)CN(C(=O)CCc2ccccc2)CC(=O)N[C@@H](CCCCN)CN(C(=O)CCc2ccccc2)CC(=O)N[C@@H](CCCCN)CN(C(=O)CCc2ccccc2)CC(=O)N[C@@H](CCCCN)CN(C(=O)CCc2ccccc2)CC(=O)N[C@@H](Cc2ccccc2)CN(CC(N)=O)C(=O)CCC(=O)N[C@@H](Cc2ccccc2)C1 [HW-B-13] | 8 µg/mL (≈ 3.85 µM) | 2 µg/mL (≈ 0.962 µM) | 2 µg/mL (≈ 0.962 µM) | 40 µg/mL | 100 µg/mL | 1 | 5 µg/mL (≈ 2.4 µM) |  |  |  |  |  |  |  |  |  |  |  |  |
| CC(C)CCC(=O)N1CC(=O)N[C@@H](CCCCN)CN(C(=O)CCc2ccccc2)CC(=O)N[C@@H](CCCCN)CN(C(=O)CCc2ccccc2)CC(=O)N[C@@H](Cc2ccccc2)CN(CC(N)=O)C(=O)CCC(=O)N[C@@H](CCCCN)CN(C(=O)CCc2ccccc2)CC(=O)N[C@@H](CCCCN)CN(C(=O)CCc2ccccc2)CC(=O)N[C@@H](CCCCN)CN(C(=O)CCc2ccccc2)CC(=O)N[C@@H](Cc2ccccc2)C1 [γAA4] |  |  |  |  |  |  |  | >100 µg/mL | 3 to 6 µg/mL | 2 µg/mL (≈ 0.955 µM) | >500 µg/mL | 2 µg/mL (≈ 0.955 µM) | 3.1 to 6.3 µg/mL | 12.5 to 25 µg/mL | 3.1 to 6.3 µg/mL |  |  |  |  |
| CC(C)CCC(=O)N1CC(=O)N[C@@H](CCCCN)CN(C(=O)CCc2ccccc2)CC(=O)N[C@@H](Cc2ccccc2)CN(CC(N)=O)C(=O)CCC(=O)N[C@@H](CCCCN)CN(C(=O)CCc2ccccc2)CC(=O)N[C@@H](Cc2ccccc2)CN(C(=O)CCC(C)C)CC(=O)N[C@@H](CCCCN)CN(C(=O)CCc2ccccc2)CC(=O)N[C@@H](CCCCN)CN(C(=O)CCc2ccccc2)CC(=O)N[C@@H](Cc2ccccc2)C1 [HW-B-12] | 5 µg/mL (≈ 2.4 µM) | 5 µg/mL (≈ 2.4 µM) | 5 µg/mL (≈ 2.4 µM) | 150 µg/mL | 450 µg/mL | 6 µg/mL (≈ 2.88 µM) | 8 µg/mL (≈ 3.85 µM) |  |  |  |  | 5 µg/mL (≈ 2.4 µM) |  |  |  | > 50 µg/mL |  |  |  |
| NCCCC[C@H]1CN(C(=O)CCc2ccccc2)CC(=O)N[C@@H](CCCCN)CN(C(=O)CCc2ccccc2)CC(=O)N[C@@H](CCCCN)CN(C(=O)CCc2ccccc2)CC(=O)N[C@@H](CCCCN)CN(C(=O)CCc2ccccc2)CC(=O)N[C@@H](CCCCN)CN(C(=O)CCc2ccccc2)CC(=O)N[C@@H](CCCCN)CN(C(=O)CCc2ccccc2)CC(=O)N[C@@H](Cc2ccccc2)CN(CC(N)=O)C(=O)CCC(=O)N1 [HW-B-5] | > 50 µg/mL | > 50 µg/mL | 8 µg/mL (≈ 3.79 µM) | > 500 µg/mL | > 500 µg/mL | 25-50 | 20 µg/mL (≈ 9.48 µM) |  |  |  |  | 5 µg/mL (≈ 2.37 µM) |  |  |  | 18 µg/mL (≈ 8.53 µM) |  |  |  |
| NCCCC[C@H](N)CN(CC(=O)N[C@@H](CCCCN)CN(CC(=O)N[C@@H](CCCCN)CN(CC(=O)N[C@@H](CCCCN)CN(CC(=O)N[C@@H](CCCCN)CN(CC(N)=O)C(=O)CCc1ccccc1)C(=O)CCc1ccccc1)C(=O)CCc1ccccc1)C(=O)CCc1ccccc1)C(=O)CCc1ccccc1 [γ2] |  |  |  |  |  |  |  | >100 µg/mL |  |  |  | 5 µg/mL (≈ 3.26 µM) |  |  | 25 µg/mL (≈ 16.3 µM) |  | >100 µg/mL | >100 µg/mL | >100 µg/mL |
| NCCCC[C@H]1CN(C(=O)CCc2ccccc2)CC(=O)N[C@@H](CCCCN)CN(C(=O)CCc2ccccc2)CC(=O)N[C@@H](CCCCN)CN(C(=O)CCc2ccccc2)CC(=O)N[C@@H](CCCCN)CN(C(=O)CCc2ccccc2)CC(=O)N[C@@H](CCCCN)CN(C(=O)CCc2ccccc2)CC(=O)N[C@@H](Cc2ccccc2)CN(CC(N)=O)C(=O)CCC(=O)N1 [HW-B-4] | > 50 µg/mL | > 50 µg/mL | 10 µg/mL (≈ 5.54 µM) | > 500 µg/mL | > 500 µg/mL | > 50 µg/mL | 20 µg/mL (≈ 11.1 µM) |  |  |  |  | 10 µg/mL (≈ 5.54 µM) |  |  |  | 20 µg/mL (≈ 11.1 µM) |  |  |  |
